Columns and labels:
[1] = target: T1, eelAChE (acetylcholinesterase from the electric eel) (Electrophorus electricus, UniProt O42275); assay: biochemical; settings: for IC50: mean ± SD of three independent experiments; for inhibition at 50 µM: read-out: eelAChE: % inhibition
T1 construct: purchased Sigma Aldrich

[2] = DPPH antioxidant assay; settings: DPPH 110 µM, 30 min incubation, 517 nm; read-out: DPPH scavenging EC50
Excerpt: The DPPH method presents several advantages, such as low cost, ease of performing experiments, high reproducibility, applicability at room temperature, and automation possibilities. In contrast to other traditional antioxidant assays that require additional treatments of sample and reagents, such as high temperatures and/or oxygen supply, the DPPH method requires mild experimental conditions[35],[36]. These features have established it as a convenient and effective option for researchers in the evaluation of antioxidant properties. In this study, the antioxidant activities of the synthesized compounds 6a-j were assessed using the DPPH assay, and the obtained results are represented as EC50 values in Table 2. In this assay, quercetin was used as positive control to compare the antioxidant capacity of the tested compounds.
The antioxidant activity of the synthesized compounds were determined based on the DPPH method. 2,2-Diphenyl-1-picrylhydrazyl (DPPH) and quercetin were obtained from Sigma Aldrich company. In this assay, quercetin was used as the control compound. Initially, stock solutions of the tested compounds with concentration of 40 mM were prepared in dimethyl sulfoxide (DMSO) solvent, and then the necessary dilutions were made in methanol to prepare the required concentrations ranging from 25 to 400 µM. This test was conducted in 96-well plates. Each well contained 180 μL of DPPH (110 μM) and 20 μL of different concentrations of the tested compounds, which were incubated for 30 min under dark condition. Then, the absorbance changes were measured at a wavelength of 517 nm using the Synergy HTX Multi-Mode Reader-BioTek. EC50 values for the compounds whose free radical trapping percentage was more than 50% at a concentration of 400 µM were obtained using CurveExpert software. Experiments were repeated three times for each concentration and the results were reported as the mean (m) ± standard deviation (SD).

[3] = target: eqBuChE (butyrylcholinesterase from equine serum) (Equus caballus, UniProt P81908); assay: biochemical; assay type: biochemical; settings: for IC50: mean ± SD of three independent experiments; for inhibition at 50 µM: read-out: eqBuChE: % inhibition; for Selectivity index to BuChE (SI): IC50 for AChE/ IC50 for BuChE
Chain of eqBuChE (butyrylcholinesterase from equine serum) (P81908 whole entry): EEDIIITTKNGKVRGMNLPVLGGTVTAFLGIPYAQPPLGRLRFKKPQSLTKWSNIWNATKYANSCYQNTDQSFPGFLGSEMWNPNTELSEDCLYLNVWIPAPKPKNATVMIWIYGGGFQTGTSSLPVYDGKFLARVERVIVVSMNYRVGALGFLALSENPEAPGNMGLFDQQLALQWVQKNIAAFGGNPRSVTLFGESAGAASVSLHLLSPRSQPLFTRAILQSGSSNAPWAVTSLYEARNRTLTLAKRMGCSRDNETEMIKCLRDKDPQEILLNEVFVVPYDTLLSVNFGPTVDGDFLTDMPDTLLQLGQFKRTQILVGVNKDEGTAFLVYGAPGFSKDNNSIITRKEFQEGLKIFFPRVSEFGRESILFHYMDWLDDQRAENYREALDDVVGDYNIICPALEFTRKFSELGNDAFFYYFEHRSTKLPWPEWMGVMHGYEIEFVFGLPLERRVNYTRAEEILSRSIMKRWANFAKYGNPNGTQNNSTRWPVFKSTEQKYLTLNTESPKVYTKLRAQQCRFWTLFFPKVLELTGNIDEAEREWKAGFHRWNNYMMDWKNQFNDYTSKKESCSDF

[4] = target: eqBuChE (Equus caballus, UniProt P81908); assay: Kinetic study of eqBuChE inhibition (Lineweaver-Burk plot); assay type: biochemical, equine; settings: inhibitor 0.5, 1, 5, 10, and 20 µM
Chain of eqBuChE (P81908 whole entry): as above
Method: (§1) Kinetic study was performed to investigate the inhibition mechanism of eelAChE and eqBuChE using graphical analysis of the reciprocal Lineweaver–Burk plot. […] The kinetic studies were performed in the absence (control) and presence of different concentrations of compound 6h (5, 10, 20, 40, and 80 μM) for eelAChE and different concentrations of compound 6f (0.5, 1, 5, 10, and 20 μM) for eqBuChE. The control wells contained no concentration of 6h and 6f as inhibitors.
(§2) The initial velocity (V) of the substrates hydrolysis was measured at different concentrations of acetylthiocholine iodide (ATCI) or butyrylthiocholine iodide (BTCI) (1.7–20 mM), in the absence (control) and presence of different concentrations of the compound 6h (5, 10, 20, 40, and 80 μM) for AChE and different concentrations of compound 6f (0.5, 1, 5, 10, and 20 μM) for BuChE. Then, the double reciprocal plot of 1/V versus 1/S was drawn to determine the inhibition type of AChE and BuChE. Data analysis was performed using Microsoft Office Excel 2016.

[5] = target: T2, eelAChE (Electrophorus electricus, UniProt O42275); assay: Kinetic study of eelAChE inhibition (Lineweaver-Burk plot); assay type: biochemical, electric eel; settings: inhibitor 5, 10, 20, 40, and 80 µM
T2 construct: purchased Sigma Aldrich
T2 sequence (O42275 24-633): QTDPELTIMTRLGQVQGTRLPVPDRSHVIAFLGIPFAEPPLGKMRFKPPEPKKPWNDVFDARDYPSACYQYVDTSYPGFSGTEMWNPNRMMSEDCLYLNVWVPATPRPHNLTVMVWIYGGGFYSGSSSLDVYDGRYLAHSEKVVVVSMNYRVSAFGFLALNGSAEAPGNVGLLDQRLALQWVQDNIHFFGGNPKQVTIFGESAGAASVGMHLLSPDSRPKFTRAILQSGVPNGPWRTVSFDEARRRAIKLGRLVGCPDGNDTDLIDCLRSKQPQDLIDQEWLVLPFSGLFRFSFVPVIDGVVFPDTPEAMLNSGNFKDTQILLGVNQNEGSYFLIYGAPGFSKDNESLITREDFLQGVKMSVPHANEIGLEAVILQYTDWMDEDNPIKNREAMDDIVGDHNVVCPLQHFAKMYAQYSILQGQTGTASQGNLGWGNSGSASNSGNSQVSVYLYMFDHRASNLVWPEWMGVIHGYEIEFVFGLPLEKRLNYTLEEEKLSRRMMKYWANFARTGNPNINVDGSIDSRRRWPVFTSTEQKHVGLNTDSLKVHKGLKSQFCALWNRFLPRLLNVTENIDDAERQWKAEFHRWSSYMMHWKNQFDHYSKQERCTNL
Method: as §1, §2

T1 sequence (O42275 24-633): as above

Row | SMILES | IC50 [1] | inhibition at 50 µM [1] | EC50 [2] | IC50 [3] | inhibition at 50 µM [3] | Inhibition type of eqBuChE [4] | eqBuChE inhibitory activity, times more active than donepezil [3] | Selectivity index to BuChE (SI) [3] | Inhibition type of eelAChE [5]
1 | Oc1ccccc1Nc1nc(Nc2ccccc2O)c2ccccc2n1 [Compound 6b, 2,2′-(quinazoline-2,4-diylbis(azanediyl))diphenol] | > 50 µM | 8.7 ± 1.15% | 26.1 µM | 37.2 µM | 52.3 ± 2.17% |  |  |  | 
2 | COc1ccc(Nc2nc(Nc3ccc(OC)cc3)c3ccccc3n2)cc1 [Compound 6g, N^2, N^4-bis(4-methoxyphenyl)quinazoline-2,4-diamine] | > 50 µM | 11 ± 4.64% | > 400 µM | 48.3 µM | 51.5 ± 3.25% |  |  |  | 
3 | FC(F)(F)c1cccc(Nc2nc(Nc3cccc(C(F)(F)F)c3)c3ccccc3n2)c1 [Compound 6e, N^2, N^4-bis(3-(trifluoromethyl)phenyl)quinazoline-2,4-diamine] | > 50 µM | 16.5 ± 3.05% | > 400 µM | 43.5 µM | 58.8 ± 1.37% |  |  |  | 
4 | Brc1ccccc1Nc1nc(Nc2ccccc2Br)c2ccccc2n1 [Compound 6a, N^2, N^4-bis(2-bromophenyl) quinazoline-2,4-diamine] | > 50 µM | 12.4 ± 2.74% | > 400 µM | > 50 µM | 30.6 ± 2.15% |  |  |  | 
5 | COc1ccc(Cl)cc1Nc1nc(Nc2cc(Cl)ccc2OC)c2ccccc2n1 [Compound 6i, N^2, N^4-bis(5-chloro-2-methoxyphenyl)quinazoline-2,4-diamine] | > 50 µM | 13.7 ± 1.94% | > 400 µM | > 50 µM | 26.6 ± 3.19% |  |  |  | 
6 | Brc1cccc(Nc2nc(Nc3cccc(Br)c3)c3ccccc3n2)c1 [Compound 6d, N^2,N^4-bis(3-bromophenyl)quinazoline-2,4-diamine] | > 50 µM | 23.5 ± 1.03% | > 400 µM | 41.7 µM | 56.1 ± 4.17% |  |  |  | 
7 | Cc1ccc(Nc2nc(Nc3ccc(C)cc3)c3ccccc3n2)cc1 [Compound 6f, N^2, N^4-di-p-tolylquinazoline-2,4-diamine] | > 50 µM | 40.3 ± 3.55% | > 400 µM | 0.52 µM | 96.7 ± 2.57% | mixed-type inhibition | 20 times | > 96 | 
8 | Nc1ccccc1Nc1nc(Nc2ccccc2N)c2ccccc2n1 [Compound 6c, N^1, N^1′-(quinazoline-2,4-diyl)bis(benzene-1,2-diamine)] | > 50 µM | 6.15 ± 3.15% | 28.4 µM | 26.9 µM | 64.1 ± 2.32% |  |  |  | 
9 | Cc1ccc(O)c(Nc2nc(Nc3cc(C)ccc3O)c3ccccc3n2)c1 [Compound 6j, 2'-(quinazoline-2,4-diylbis(azanediyl))bis(4-methylphenol)] | > 50 µM | 45.2 ± 2.91% | 23.2 µM | 3.65 µM | 91.6 ± 3.26% |  |  | > 13.6 | 
10 | COc1ccc(Nc2nc(Nc3ccc(OC)cc3OC)c3ccccc3n2)c(OC)c1 [Compound 6h, N^2, N^4-bis(2,4-dimethoxyphenyl)quinazoline-2,4-diamine] | 47.6 µM | 52.4 ± 2.33% | > 400 µM | 6.74 µM | 87.5 ± 3.08% |  |  | 7.1 | mixed-type inhibition
11 | O=c1c(O)c(-c2ccc(O)c(O)c2)oc2cc(O)cc(O)c12 [Quercetin, quercetin, reference compound] |  |  | 8.9 µM |  |  |  |  |  | 
